In brackets after ≈: the same amount, converted by molar mass. Like-named read-outs stand apart in the source and are kept apart here.
Key:
[1] = test system: rainbow trout (Oncorhynchus mykiss); conditions: 96 h, ref Pesticide Properties DataBase (PPDB; University of Hertfordshire), cited from earlier work
[2] = test system: fish; conditions: cited from earlier work
[3] = test system: Daphnia magna; conditions: cited from earlier work
[4] = type: physicochemical
Description: All biochromatographic experiments were performed using the gradient IAM protocols developed by Valkó and co-workers and previously implemented in this laboratory. Analyses were carried out on a Prominence-i LC-2030C 3D HPLC system (Shimadzu, Tokyo, Japan) controlled by LabSolutions software (v6.81, Kyoto, Japan) and equipped with an IAM.PC.DD2 column (10 × 4.6 mm, 10.0 µm) packed on the newer ‘Type B’ silica support and protected by a guard column (Regis Technologies, Morton Grove, IL, USA).
Mobile phase A consisted of 50 mM ammonium acetate (VWR International, Leuven, Belgium) in water, adjusted to physiological pH 7.4 with concentrated ammonia solution (Avantor Performance Materials Poland S.A., Gliwice, Poland). Ultrapure water with a resistivity of 18.2 MΩ was obtained from a Milli-Q water purification system (Merck Millipore, Darmstadt, Germany). For phospholipid affinity measurements, mobile phase B was HPLC-grade acetonitrile (Chempur, Piekary Śląskie, Poland). A linear gradient from 0 to 85% B was applied over 5.25 min, followed by an isocratic hold at 85% B for 0.5 min. The mobile phase flow rate was set at 1.5 mL/min, and the column temperature was maintained at 30 °C.
The reference substances used to calculate CHIIAM values were obtained as follows: acetanilide, butyrophenone and octanophenone from Alfa Aesar (Haverhill, MA, USA); acetophenone and paracetamol from Sigma-Aldrich (Steinheim, Germany); and heptanophenone, hexanophenone, propiophenone and valerophenone from Acros Organics (Pittsburgh, PA, USA).
Dimethyl sulfoxide (Avantor Performance Materials Poland S.A., Gliwice, Poland) was used to dissolve the analytes and to prepare stock solutions at a concentration of 200 µg/mL. UV detection was performed in the range 190–300 nm. The injection volume was 5 µL. Each compound was analyzed in duplicate, and the variation in retention times was lower than 2%. Raw retention times for the pesticides and reference standards are available in Zenodo platform https://doi.org/10.5281/zenodo.17672582.

[5] = in fish, dimensionless, ref Pesticide Properties DataBase (PPDB; University of Hertfordshire)
[6] = 48 h, Daphnia magna, ref Pesticide Properties DataBase (PPDB; University of Hertfordshire)
[7] = IAM.PC.DD2 column, gradient 0-85% acetonitrile, 50 mM ammonium acetate pH 7.4, 30 °C

| SMILES | LC50 Fish [1] [mg/L] | BCF (bioconcentration factor) [2, 5] | EC50 Daphnia [3, 6] [ng/mL] | CHIIAM (IAM chromatographic hydrophobicity index) [4, 7] | also measured |
| --- | --- | --- | --- | --- | --- |
| Cc1c(COC(=O)[C@@H]2[C@H](/C=C(\Cl)C(F)(F)F)C2(C)C)cccc1-c1ccccc1 (racemic) [Bifenthrin, bifenthrin] | 0.00026 (≈ 0.000615 µM) | 1703 | 0.11 (≈ 0.00026 µM) | 54.4 | LC50 Fish ([1]; listed as bifenthrin): ≈ 0.00026 mg/L; CHIIAM (IAM chromatographic hydrophobicity index) ([4]; IAM.PC.DD2 column, gradient 0-85% acetonitrile, 50 mM ammonium acetate pH 7.4, 30 °C, listed as bifenthrin): > 48 |
| C/C(=N\C#N)N(C)Cc1ccc(Cl)nc1 [Acetamiprid, acetamiprid] | 100 (≈ 449 µM) | – | 49800 (≈ 224 µM) | 13.4 | – |
| CCNc1nc(Cl)nc(NC(C)C)n1 [Atrazine, atrazine] | 4.5 (≈ 20.9 µM) | 4.3 | 85000 (≈ 394 µM) | 27.4 | EC50 Daphnia ([3]; 48 h, Daphnia magna, ref Pesticide Properties DataBase (PPDB; University of Hertfordshire), listed as atrazine): ≈ 85 mg/L |
| COP(=S)(OC)SCn1nnc2ccccc2c1=O [Azinphos-methyl, azinphos-methyl] | – | 40 | 1.1 (≈ 0.00347 µM) | – | – |
| CO/C=C(/C(=O)OC)c1ccccc1Oc1cc(Oc2ccccc2C#N)ncn1 [Azoxystrobin, azoxystrobin] | 0.47 (≈ 1.17 µM) | – | 230 (≈ 0.57 µM) | 31.6 | – |
| O=C(Nc1ccccc1-c1ccc(Cl)cc1)c1cccnc1Cl [Boscalid, boscalid] | 2.7 (≈ 7.87 µM) | 107 | 5330 (≈ 15.5 µM) | 38.0 | BCF (bioconcentration factor) ([2]; in fish, dimensionless, ref Pesticide Properties DataBase (PPDB; University of Hertfordshire), listed as boscalid): ≈ 107 |
| CNC(=O)Oc1cccc2ccccc12 [Carbaryl, carbaryl] | – | 44 | 6.4 (≈ 0.0318 µM) | – | EC50 Daphnia ([3]; 48 h, Daphnia magna, ref Pesticide Properties DataBase (PPDB; University of Hertfordshire), listed as carbaryl): ≈ 0.0064 mg/L |
| CCOP(=S)(OCC)Oc1nc(Cl)c(Cl)cc1Cl [Chlorpyrifos, chlorpyrifos] | 0.025 (≈ 0.0713 µM) | 1374 | 0.1 (≈ 0.000285 µM) | 48.1 | EC50 Daphnia ([3]; 48 h, Daphnia magna, ref Pesticide Properties DataBase (PPDB; University of Hertfordshire), listed as chlorpyrifos): 0.1 to 1 ng/mL |
| CCOP(=S)(OCC)Oc1cc(C)nc(C(C)C)n1 [Diazinon, diazinon] | 3.1 (≈ 10.2 µM) | 500 | 1 (≈ 0.00329 µM) | 39.3 | EC50 Daphnia ([3]; 48 h, Daphnia magna, ref Pesticide Properties DataBase (PPDB; University of Hertfordshire), listed as diazinon): 0.1 to 1 ng/mL |
| COc1c(Cl)ccc(Cl)c1C(=O)O [Dicamba, dicamba] | 100 (≈ 452 µM) | – | – | – | BCF (bioconcentration factor) ([2]; in vivo): 15; EC50 Daphnia ([3]; in vivo): 41000 ng/mL (≈ 185 µM); CHIIAM (IAM chromatographic hydrophobicity index) ([4]; pH 7.4): 8.2 |
| COP(=S)(OC)Oc1ccc([N+](=O)[O-])c(C)c1 [Fenitrothion, fenitrothion] | 1.3 (≈ 4.69 µM) | 29 | 8.6 (≈ 0.031 µM) | 38.1 | – |
| CC1(C)C(C(=O)OC(C#N)c2cccc(Oc3ccccc3)c2)C1(C)C (stereo not drawn) [Fenpropathrin, fenpropathrin] | 0.0023 (≈ 0.00658 µM) | 1100 | 0.53 (≈ 0.00152 µM) | 48.6 | LC50 Fish ([1]; listed as fenpropathrin): ≈ 0.0023 mg/L |
| N#Cc1c[nH]cc1-c1cccc2c1OC(F)(F)O2 [Fludioxonil, fludioxonil] | 0.23 (≈ 0.927 µM) | 336 | 400 (≈ 1.61 µM) | 43.5 | – |
| CC(C)C1(C)N=C(c2ncccc2C(=O)O)NC1=O (stereo not drawn) [Imazapyr, imazapyr] | 100 (≈ 383 µM) | 2.54 | 100000 (≈ 383 µM) | −12.1 | EC50 Daphnia ([3]; 48 h, Daphnia magna, ref Pesticide Properties DataBase (PPDB; University of Hertfordshire), listed as imazapyr): ≈ 100 mg/L |
| O=[N+]([O-])NC1=NCCN1Cc1ccc(Cl)nc1 [Imidacloprid, imidacloprid] | 83 (≈ 325 µM) | 0.61 | 85000 (≈ 332 µM) | 14.2 | BCF (bioconcentration factor) ([2]; in fish, dimensionless, ref Pesticide Properties DataBase (PPDB; University of Hertfordshire), listed as imidacloprid): ≈ 0.6 |
| CC1(C)C(C=C(Cl)Cl)C1C(=O)OCc1cccc(Oc2ccccc2)c1 (stereo not drawn) [Permethrin, permethrin] | 0.0125 (≈ 0.0319 µM) | 300 | 0.6 (≈ 0.00153 µM) | 54.8 | – |
| CCCC1COC(Cn2cncn2)(c2ccc(Cl)cc2Cl)O1 (stereo not drawn) [Propiconazole, propiconazole] | 2.6 (≈ 7.6 µM) | 116 | 10200 (≈ 29.8 µM) | 38.7 | – |
| CC(C)(C)C(O)(CCc1ccc(Cl)cc1)Cn1cncn1 (stereo not drawn) [Tebuconazole, tebuconazole] | 4.4 (≈ 14.3 µM) | 78 | 2790 (≈ 9.06 µM) | 39.5 | – |
| CCNc1nc(Cl)nc(NC(C)(C)C)n1 [Terbuthylazine, terbuthylazine] | 2.2 (≈ 9.58 µM) | 34 | 21200 (≈ 92.3 µM) | 34.3 | BCF (bioconcentration factor) ([2]; in fish, dimensionless, ref Pesticide Properties DataBase (PPDB; University of Hertfordshire), listed as terbuthylazine): ≈ 34 |

— publication PMC12821709, “Biomimetic Chromatography as a High-Throughput Tool for Screening Bioaccumulation and Acute Aquatic Toxicity of Pesticides” (Journal of Xenobiotics, 2025)
